Reference: US10167262B2, “Herbicidal substituted 3-arylpyrazoles” (FMC CORPORATION, priority 2014, dated 2019)
Several values for one entry are separate records, joined by “and”; a condition that tells them apart may be missing. Equal entries are not always repeated.

Key:
Assay in all cases: Test H postemergence mixture test of compound 39 with commercial herbicides, observed and Colby expected effect 0-100
Type in all cases: in vivo
Settings in all cases: commercial herbicide alone, 14 days after treatment
[1] = test system: palmer pigweed (AMAPA, Amaranthus palmeri)
Excerpt: (§1) This test evaluated the effect of mixtures of compound 39 with three commercial herbicides on five plant species. Seeds of plant species selected from corn (ZEAMD, Zea mays), soybean (GLXMA, Glycine max), palmer pigweed (AMAPA, Amaranthus palmeri), waterhemp (common waterhemp, AMATA, Amaranthus rudis), and Kochia (KCHSC, Kochia scoparia) were planted in pots containing Redi-Earth® planting medium (Scotts Company, 14111 Scottslawn Road, Marysville, Ohio 43041) comprising spaghnum peat moss, vermiculite, wetting agent and starter nutrients and treated with postemergence applications of test chemicals formulated in a non-phytotoxic solvent mixture which included a surfactant and applied using a volume of 299 L/ha. Each treatment was replicated four times. Treated plants and controls were maintained in a greenhouse using supplemental lighting to maintain a photoperiod of about 16 h; daytime and nighttime temperatures were about 24-30° C. and 19-21° C., respectively. Nutrients were applied using a balanced fertilizer applied through the watering system. At 14 days after treatment, all species were compared to controls and visually evaluated. Plant response ratings were calculated as the mean of the four replicates, are summarized in Tables H1 through H6, and are based on a scale of 0 to 100 where 0 is no effect and 100 is complete control. A dash (-) response means no test result.
(§2) Colby's Equation was used to determine the herbicidal effects expected from the mixtures. Colby's Equation (Colby, S. R. “Calculating Synergistic and Antagonistic Responses of Herbicide Combinations,” Weeds, 15(1), pp 20-22 (1967)) calculates the expected additive effect of herbicidal mixtures and for two active ingredients is of the form: Pa+b=Pa+Pb−(PaPb/100) • where • Pa+b is the percentage effect of the mixture expected from additive contribution of the individual components: • Pa is the observed percentage effect of the first active ingredient at the same use rate as in the mixture, and • Pb is the observed percentage effect of the second active ingredient at the same use rate as in the mixture. In the following Tables, rates are shown in grams of active ingredient per hectare (g a.i./ha); “Obsd.” is the observed effect. “Exp.” is the expected effect calculated from Colby's Equation.

corn (ZEAMD, Zea mays) = test system: corn (ZEAMD, Zea mays)
Excerpt: as §1, §2

[2] = test system: waterhemp (common waterhemp, AMATA, Amaranthus rudis)
Excerpt: as §1, §2

[3] = test system: Kochia (KCHSC, Kochia scoparia)
Excerpt: as §1, §2

[4] = test system: soybean (GLXMA, Glycine max)
Excerpt: as §1, §2

Row | SMILES | AMAPA Obsd. (observed effect) ([1]; 0.25 g a.i./ha) | AMAPA Obsd. (observed effect) ([1]; 1 g a.i./ha) | ZEAMD Obsd. (observed effect) (corn (ZEAMD, Zea mays); 0.25 g a.i./ha) | ZEAMD Obsd. (observed effect) (corn (ZEAMD, Zea mays); 1 g a.i./ha) | AMATA Obsd. (observed effect) ([2]; 0.25 g a.i./ha) | AMATA Obsd. (observed effect) ([2]; 1 g a.i./ha) | KCHSC Obsd. (observed effect) ([3]; 0.25 g a.i./ha) | KCHSC Obsd. (observed effect) ([3]; 1 g a.i./ha) | GLXMA Obsd. (observed effect) ([4]; 0.25 g a.i./ha) | GLXMA Obsd. (observed effect) ([4]; 1 g a.i./ha) | AMAPA Obsd. (observed effect) ([1]; 4 g a.i./ha) | ZEAMD Obsd. (observed effect) (corn (ZEAMD, Zea mays); 4 g a.i./ha) | AMATA Obsd. (observed effect) ([2]; 4 g a.i./ha) | KCHSC Obsd. (observed effect) ([3]; 4 g a.i./ha) | GLXMA Obsd. (observed effect) ([4]; 4 g a.i./ha)
1 | CCOC(=O)c1ccccc1S(=O)(=O)NC(=O)Nc1nc(Cl)cc(OC)n1 [Chlorimuron-ethyl, chlorimuron-ethyl] | 65 | 86 | 0 | 33 | 77 | 76 | 88 | 97 | 0 | 0 |  |  |  |  | 
2 | CS(=O)(=O)c1ccc(C(=O)C2C(=O)CCCC2=O)c([N+](=O)[O-])c1 [Mesotrione, mesotrione] |  |  |  |  |  |  |  |  |  |  | 78 and 72 | 0 | 79 and 92 | 79 and 72 | 64 and 62
3 | COc1cc(OC)nc(NC(=O)NS(=O)(=O)c2ncccc2C(=O)N(C)C)n1 [Nicosulfuron, nicosulfuron] | 3 | 100 | 0 | 0 | 63 | 78 | 43 | 89 | 0 | 51 |  |  |  |  | 
